Reference: PMC8464850, “Sulfonium Ligands of the α7 nAChR” (Molecules, 2021)
Blank lines part the entries; values can stand above or below the molecule they belong to.

What was measured:
α7 nAChR [1] = target: T1, α7 nAChR (Homo sapiens, UniProt P36544); assay: Inhibition of α7 ACh-evoked responses; type: cell-based
T1 construct: expressed in transfected cells; host or cells: Xenopus laevis oocytes (injected RNA)
Description: Figure 4 Effects sulfonium compounds on α7 ACh-evoked net-charge responses. (A) Effects of the sulfonium compounds at 100 µM co-applied with 60 µM relative to responses to 60 µM ACh applied alone. Data are the averages (±SEM) from seven or eight cells under each condition. (B) Effects of select sulfonium compounds at 1 mM co-applied with 60 µM relative to responses to 60 µM ACh applied alone. Data are the averages (±SEM) from seven or eight cells under each condition. Statistical significance was determined by pairwise t-test with p values corrected for multiple comparisons; * p < 0.05, ** p < 0.001.
The sulfonium compounds that were active with TQS but produced little inhibition of ACh response at a concentration of 100 µM were tested as inhibitors of ACh response at a concentration of 1 mM (Figure 4B).
We tested S8 across a range of concentrations for its ability to inhibit 60 µM ACh responses (Figure 5A). Note that we use 60 µM as an ACh control because this concentration gives nearly maximal (93%) net-charge responses, with the time course of the responses roughly following the speed of solution exchange. […] We tested whether inhibition of α7 responses by S8 was surmountable by increasing ACh concentration, consistent with a competitive mechanism of inhibition. However, since α7 responses to concentrations of ACh greater than 60 µM occur more rapidly than solution exchange in the chamber, we first pre-applied 5 µM S8 prior to the co-application of 5 µM S8 with either 60 µM or 1 mM ACh (Figure 5B). The 60 µM net-charge responses were reduced to 28 ± 2% of controls (n = 8) and 60 µM peak currents to 21 ± 3 % controls. The 1 mM net-charge responses were reduced to 56 ± 6 % of those obtained without S8 co-application, although the S8 co-application increased the peak-current amplitudes compared to 60 µM controls from 1.78 ± 0.15 to 3.72 ± 0.81 (n = 8).
Figure 5 Inhibition of α7 ACh-evoked responses by S8. (A) Concentration-response studies of α7 net-charge responses to 60 µM ACh co-applied with increasing concentrations of S8. To confirm the stability of the ACh responses, applications of ACh plus S8 were alternated with applications of ACh alone. Data are the averages of eight cells (±SEM). See text for curve-fit values. (B) Effects of 5 µM S8 on responses to either 60 µM or 1 mM ACh. The traces shown across the top are the averaged raw data from seven cells, each normalized to the peak current of the first ACh control response shown. In order to assure that the S8 was present at 5 µM throughout the ACh-evoked responses, a 30 s pre-application was made of 5 µM S8 alone. The lower traces show averaged responses to 60 µM or 1 mM ACh alone or with the 5 µM S8 pre- and co-application. The details of the data are described in Methods.
(§1) Experiments were conducted using OpusXpress 6000A (Molecular Devices, Union City, CA, USA). Both the voltage and current electrodes were filled with 3 M KCl. Oocytes were voltage-clamped at −60 mV at room temperature (24 °C). The oocytes were bath-perfused with Ringer’s solution (115 mM NaCl, 2.5 mM KCl, 1.8 mM CaCl2, 10 mM HEPES, and 1 μM atropine, pH 7.2) at 2 mL/min for α7 receptors, or 4 mL/min for heteromeric nAChR. To evaluate the effects of experimental compounds, responses were compared to control ACh-evoked responses, defined as the average of two initial applications of ACh made before test applications. ACh control concentrations were 60 µM for α7 receptors; 100 µM for α4(3)β2(2) and α3β4 receptors; 30 µM for α4β2α6β2β3 and muscle-type (αβ1εδ) receptors; and 10 µM for α4(3)β2(2) and α4(2)β2(2)α5 receptors.
Solutions were applied from 96-well plates via disposable tips. Drug applications were 12 s in duration, followed by 181 s washout periods for α7 receptors, or 6 s in duration followed by 301 s washout periods for heteromeric nAChR. […]

[2] = tested on: α4β2 subtypes formed with concatamers; assay: Inhibition of ACh control peak-current responses of α4-containing nAChR formed with concatamers; type: cell-based, human; settings: 100 µM compound, Figure 7B
Description: (§2) Although none of the other sulfonium compounds activated neuronal heteromeric receptors, several of them produced inhibition of ACh-evoked responses. Shown in Figure 7A are concentration-response studies for the compounds that were active antagonists of α3β4 nAChR (Table 3). Some compounds were also tested as antagonists of α4β2 subtypes formed with concatamers (Figure 7B).
Figure 7 Inhibition of heteromeric nAChR by sulfonium compounds. (A) Inhibition of α3β4 100 µM ACh-evoked peak currents by the co-application of the sulfonium compounds. Data are the averaged of six to eight oocytes (±SEM). […]
Solutions were applied from 96-well plates via disposable tips. […] The responses were calculated as both peak current amplitudes and net charge, as previously described. Data were collected at 50 Hz, filtered at 20 Hz for α7 receptors or filtered at 5 Hz for heteromeric nAChR, and analyzed by Clampfit (Molecular Devices, San Jose, CA, USA) and Excel (Microsoft, Redmond, WA, USA). Data were expressed as means ± SEM from at least four oocytes for each experiment and plotted with Kaleidagraph 4.5.2 (Abelbeck Software, Reading, PA, USA). Multi-cell averages were calculated for comparisons of complex responses. Averages of the normalized data were calculated for each of the 10,322 points in each of the 206.44 s traces (acquired at 50 Hz), as well as the standard errors for those averages.

α3β4 nAChR = target: T2, α3β4 nAChR (Homo sapiens, UniProt P30926+P32297); assay: Inhibition of α3β4 100 µM ACh-evoked peak currents; type: cell-based; settings: co-application with 100 µM ACh, peak currents
T2 construct: expressed in transfected cells; host or cells: Xenopus laevis oocytes (injected RNA)
T2 sequence (P32297 32-505): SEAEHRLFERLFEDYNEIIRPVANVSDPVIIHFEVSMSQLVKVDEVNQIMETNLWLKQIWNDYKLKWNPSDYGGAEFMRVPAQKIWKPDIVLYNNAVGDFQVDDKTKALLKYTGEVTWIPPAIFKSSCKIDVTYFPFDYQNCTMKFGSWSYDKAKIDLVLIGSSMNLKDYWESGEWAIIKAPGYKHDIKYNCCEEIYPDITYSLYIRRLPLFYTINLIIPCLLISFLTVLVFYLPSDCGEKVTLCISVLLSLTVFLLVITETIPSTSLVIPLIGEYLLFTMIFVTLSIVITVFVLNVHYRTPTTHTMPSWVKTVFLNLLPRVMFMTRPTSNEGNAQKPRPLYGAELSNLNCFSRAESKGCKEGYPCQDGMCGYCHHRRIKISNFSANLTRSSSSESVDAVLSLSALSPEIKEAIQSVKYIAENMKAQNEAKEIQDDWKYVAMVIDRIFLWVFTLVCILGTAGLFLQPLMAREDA
T2 sequence (P30926 22-498): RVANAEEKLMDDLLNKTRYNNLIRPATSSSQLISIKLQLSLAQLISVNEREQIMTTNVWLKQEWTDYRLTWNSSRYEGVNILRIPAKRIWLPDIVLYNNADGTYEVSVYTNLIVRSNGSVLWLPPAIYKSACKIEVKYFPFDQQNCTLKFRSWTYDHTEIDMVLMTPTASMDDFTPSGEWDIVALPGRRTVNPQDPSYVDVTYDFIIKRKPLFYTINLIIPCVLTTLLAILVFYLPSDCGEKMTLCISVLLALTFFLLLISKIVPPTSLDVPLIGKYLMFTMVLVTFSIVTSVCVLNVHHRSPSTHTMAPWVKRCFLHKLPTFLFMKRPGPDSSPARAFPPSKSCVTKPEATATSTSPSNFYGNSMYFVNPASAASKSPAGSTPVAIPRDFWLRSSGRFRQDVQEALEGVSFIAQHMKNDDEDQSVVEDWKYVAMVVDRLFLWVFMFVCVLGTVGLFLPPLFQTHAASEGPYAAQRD
Description: as §2
Figure 7 Inhibition of heteromeric nAChR by sulfonium compounds. (A) Inhibition of α3β4 100 µM ACh-evoked peak currents by the co-application of the sulfonium compounds. Data are the averaged of six to eight oocytes (±SEM). To confirm the stability of the ACh responses, applications of ACh plus the sulfonium compounds were alternated with applications of ACh alone. (B) Inhibition of ACh control peak-current responses of α4-containing nAChR formed with concatamers by 100 µM of the sulfonium compounds indicated. Data are the average of six to eight oocytes (±SEM).
as §1
(§3) Solutions were applied from 96-well plates via disposable tips. Drug applications were 12 s in duration, followed by 181 s washout periods for α7 receptors, or 6 s in duration followed by 301 s washout periods for heteromeric nAChR. The responses were calculated as both peak current amplitudes and net charge, as previously described. Data were collected at 50 Hz, filtered at 20 Hz for α7 receptors or filtered at 5 Hz for heteromeric nAChR, and analyzed by Clampfit (Molecular Devices, San Jose, CA, USA) and Excel (Microsoft, Redmond, WA, USA). Data were expressed as means ± SEM from at least four oocytes for each experiment and plotted with Kaleidagraph 4.5.2 (Abelbeck Software, Reading, PA, USA). Multi-cell averages were calculated for comparisons of complex responses. Averages of the normalized data were calculated for each of the 10,322 points in each of the 206.44 s traces (acquired at 50 Hz), as well as the standard errors for those averages.

α7 nAChR [3] = target: T1, α7 nAChR; assay: α7 concentration-response on co-application with 10 µM PNU-120596; type: cell-based; settings: peak currents, co-applied with 10 µM PNU-120596, Hill fit; approximation only
Description: (§4) Compounds were co-applied at a concentration of 100 µM with 30 µM racemic TQS (Figure 3A). All compounds except S4, S5, and S8 gave large responses when co-applied with TQS, consistent with silent agonism of α7 (see Table S1 for ANOVA). Active compounds were also evaluated across a range of concentrations with the alternative PAM, PNU-120596 (Figure 3B). The curve-fit values for Imax (Table 1) should be taken only as approximation of the relative efficacies of the compounds, due to the large variability frequently observed in PNU-120596-potentiated responses, as evidenced by the large SEMs of the responses obtained with high concentrations.
(§5) Figure 3 Responses of α7 nAChR to sulfonium compounds coapplied with PAMs. (A) Potentiation of α7 responses with 30 µM racemic TQS. Shown are the average net-charge responses of seven or eight oocytes ± SEM. (B) Concentration-response studies of peak currents generated by compounds that gave positive responses with TQS, coapplied with 10 µM PNU-120596. Each point represents the average (±SEM) of at least four oocytes.
as §1, §3

α7 nAChR [4] = target: T1, α7 nAChR; assay: α7 responses on co-application with the type II PAM TQS (silent agonism); type: cell-based; settings: for α7 functional classification (silent agonist / inactive): inactive alone, active with a PAM = silent agonist
Description: as §4, §5
The human nAChR clones were obtained from Jon Lindstrom (University of Pennsylvania, Philadelphia, PA, USA). Mouse muscle subunit clones were obtained from Jim Boulter (Salk Institute, La Jolla, CA, USA) and Paul Gardner (Dartmouth, Hanover, NH, USA). The human resistance-to-cholinesterase 3 (RIC3) clone was obtained from Millet Treinin (Hebrew University, Jerusalem, Israel) and co-injected with α7 to improve the level and speed of α7 receptor expression without affecting the pharmacological properties of the receptors. Subsequent to linearization and purification of the plasmid DNAs, RNAs were prepared using the mMessage mMachine in vitro RNA transcription kit (Ambion, Austin, TX, USA).
as §1, §3

[5] = 5 µM S8 pre-applied and co-applied

T1 sequence (P36544 23-502): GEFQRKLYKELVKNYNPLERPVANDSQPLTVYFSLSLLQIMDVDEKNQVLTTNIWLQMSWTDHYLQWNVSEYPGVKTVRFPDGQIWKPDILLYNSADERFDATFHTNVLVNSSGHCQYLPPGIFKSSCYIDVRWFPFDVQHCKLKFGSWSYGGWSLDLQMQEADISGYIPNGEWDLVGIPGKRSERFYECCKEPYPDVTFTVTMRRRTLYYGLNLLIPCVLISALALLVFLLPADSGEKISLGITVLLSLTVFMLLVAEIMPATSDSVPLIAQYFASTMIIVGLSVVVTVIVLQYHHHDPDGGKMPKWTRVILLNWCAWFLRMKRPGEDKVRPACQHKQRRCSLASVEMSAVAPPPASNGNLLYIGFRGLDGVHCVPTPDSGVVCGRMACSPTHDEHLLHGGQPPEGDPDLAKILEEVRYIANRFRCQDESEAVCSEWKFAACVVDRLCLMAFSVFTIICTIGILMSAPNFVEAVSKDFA

60 µM ACh peak currents, % controls (α7 nAChR [1]; [5]): 21 ± 3%
1 mM ACh net-charge responses, % of those obtained without S8 co-application (α7 nAChR [1]; [5]): 56 ± 6%
remaining activity at 5 µM (α7 nAChR [1]; 5 µM S8 pre-applied and co-applied, n = 8, read-out: 60 µM ACh net-charge responses, % of controls): 28 ± 2%
IC50 (α7 nAChR [1]; net charge, co-application, eight cells, read-out: IC50 for inhibition of 60 µM ACh responses): 4.9 ± 2.7 µM
1 mM ACh peak-current amplitudes compared to 60 µM controls (α7 nAChR [1]; with 5 µM S8 pre- and co-application, n = 8): 3.72 ± 0.81
IC50 (α3β4 nAChR): 3.4 ± 0.4 µM
SMILES: C[S+](Cc1ccccc1)Cc1ccccc1 [Compound S8, dibenzyl(methyl)sulfonium tetrafluoroborate]
relative antagonist activity [2]: most active antagonist

SMILES: CCOC(=O)C[S+](C)C.[Br-] [Compound S2, (2-ethoxy-2-oxoethyl)dimethylsulfonium bromide]
effect on 60 µM ACh response at 1 mM (α7 nAChR [1]; compound 1 mM co-applied with 60 µM ACh): significant inhibition
inhibition at 100 µM (α7 nAChR [1]; read-out: inhibition of responses to 60 µM ACh): ≤ 10%
IMax (PNU Activation) (α7 nAChR [3]): 16 ± 6
α7 functional classification (silent agonist / inactive) (α7 nAChR [4]): efficacious silent agonist

SMILES: OCC[S+](CCO)CCO.[Br-] [Compound S4, tris(2-hydroxyethyl)sulfonium bromide]
inhibition of responses to 60 µM ACh (α7 nAChR [1]; compound co-applied at 100 µM, net charge): failed to produce inhibition
response when co-applied with TQS (α7 nAChR [4]; 100 µM compound with 30 µM racemic TQS, net charge): did not generate responses
α7 functional classification (silent agonist / inactive) (α7 nAChR [4]): simply inactive

SMILES: C[S+](C)CC(=O)c1ccccc1.F[B-](F)(F)F [Compound S7, dimethyl(2-oxo-2-phenylethyl)sulfonium tetrafluoroborate]
IMax (PNU Activation) (α7 nAChR [3]): >1.1
α7 functional classification (silent agonist / inactive) (α7 nAChR [4]): silent agonist activity
